Data published in article PMC8482815, “Targeting Host Glycolysis as a Strategy for Antimalarial Development” (Frontiers in Cellular and Infection Microbiology, 2021).
“And” between values parts separate entries of the source, which are not always exact repeats. Equal entries are not always repeated.

Test system: human erythrocytes
Test: Untargeted metabolomics and 13C-glucose tracing of enolase inhibitor treated erythrocytes
Type: cell-based
Settings: 1h
Experimental: Freshly collected erythrocytes were washed, resuspended to 10% hematocrit in buffer [25mM HEPES (pH 7.4), 120mM NaCl, 5.4mM KCl, 1.8mM CaCl2, and 1mM NaH2PO4], incubated for 1 hour at 37°C, then centrifuged at 2000xg for 5 minutes at 4°C, resuspended in fresh wash buffer to 30-40% hematocrit, and split into 210µL aliquots of packed erythrocytes. […] All samples were incubated at 37°C shaking at 500 RPM. Triplicate samples of supernatants and packed erythrocytes were collected at 0, 0.5, 1, and 6-hour intervals and snap-frozen in liquid N2.
RBC and media samples were extracted at 1:10 and 1:20 dilutions, respectively, in 5:3:2 MeOH : MeCN:H2O v/v/v, and supernatants analyzed on a Thermo Vanquish UHPLC coupled to a Thermo Q Exactive mass spectrometer, as extensively described ([Nemkov et al., 2015]; [Nemkov et al., 2017]). The extraction buffer was supplemented with 40uM 3-^13C lactate to allow absolute quantification of lactate isotopologues, including lactate generated via glycolysis ([1,2,3-^13C3] enriched) vs. the pentose phosphate pathway ([2,3-^13C2] enriched), as described ([Reisz et al., 2016]). Metabolite assignments, peak area integration and isotopologues distributions were determined using Maven (Princeton University) ([Nemkov et al., 2015]; [Nemkov et al., 2017]).
Data were auto-scaled and normalized to zero-hour time points. Metabolites were removed from the dataset if greater than 50% of the samples contained missing values or the relative standard deviation among replicates exceeded 25%. Additionally, data was filtered using the interquartile range to reduce near-constant values from the experiment by 5%.
A principal component analysis of preprocessed data was plotted with the 95% confidence interval minimum volume enclosing ellipsoid for each respective group (MetaboAnalyst, cluster, plotly). A two-way repeated measures analysis of variance (ANOVA) was performed with multiple comparisons corrected for using a false discovery rate p-value cutoff of 0.05. Metabolite-Pathway analysis was performed using the R package of MetaboAnalyst, as previously described ([Xia and Wishart, 2010]). Metabolite-Protein nodal analysis was performed using omicsnet.ca and as previously described ([Zhou and Xia, 2018]).

[1] = treated erythrocytes, one value per replicate sample, polarity +
[2] = treated erythrocytes, one value per replicate sample, polarity -
[3] = treated erythrocytes, replicate samples

Structure (SMILES): CC(C)(C)C(=O)OCOP(=O)(OCOC(=O)C(C)(C)C)C1CCCN(O)C1=O (stereo not shown) [POMHEX]
- AMP level (metabolomics signal) (replicate samples): 1.96E+06 and 2.60E+06 and 1.22E+06
- ATP level (metabolomics signal) (replicate samples): 1.32E+04 and 2.11E+04 and 3.43E+04
- Adenine level (metabolomics signal) (replicate samples): 1.75E+05 and 1.63E+05 and 1.61E+05
- Cytosine level (metabolomics signal) (replicate samples): 4.76E+05 and 3.43E+05 and 2.67E+05
- L-alanine level (metabolomics signal) (replicate samples): 1.12E+07 and 9.08E+06 and 1.05E+07
- L-arginine level (metabolomics signal) (replicate samples): 4.18E+06 and 1.19E+07 and 3.04E+06
- L-asparagine level (metabolomics signal) (replicate samples): 7.53E+06 and 8.13E+06 and 7.16E+06
- L-aspartate level (metabolomics signal) (replicate samples): 2.28E+07 and 2.29E+07 and 1.75E+07
- L-cysteine level (metabolomics signal) (replicate samples): 2.57E+05 and 1.28E+06 and 6.21E+05
- L-glutamate level (metabolomics signal) (replicate samples): 2.16E+07 and 2.10E+07 and 1.73E+07
- L-glutamine level (metabolomics signal) (replicate samples): 6.97E+07 and 8.81E+07 and 6.57E+07
- L-histidine level (metabolomics signal) (replicate samples): 1.22E+06 and 1.29E+06 and 1.07E+06
- L-isoleucine level (metabolomics signal) (replicate samples): 9.19E+06 and 1.31E+07 and 8.52E+06
- L-leucine level (metabolomics signal) (replicate samples): 1.97E+08 and 2.85E+08 and 1.36E+08
- L-lysine level (metabolomics signal) (replicate samples): 1.46E+06 and 1.53E+06 and 1.05E+06
- L-methionine level (metabolomics signal) (replicate samples): 1.81E+07 and 2.91E+07 and 1.59E+07
- L-phenylalanine level (metabolomics signal) (replicate samples): 1.22E+07 and 1.56E+07 and 8.20E+06
- L-proline level (metabolomics signal) (replicate samples): 4.14E+07 and 6.25E+07 and 4.63E+07
- L-serine level (metabolomics signal) (replicate samples): 6.19E+06 and 5.89E+06 and 5.91E+06
- L-threonine level (metabolomics signal) (replicate samples): 7.85E+06 and 8.68E+06 and 7.03E+06
- L-tryptophan level (metabolomics signal) (replicate samples): 4.00E+06 and 3.89E+06 and 2.67E+06
- L-tyrosine level (metabolomics signal) (replicate samples): 2.39E+07 and 3.62E+07 and 2.21E+07
- L-valine level (metabolomics signal) (replicate samples): 1.59E+08 and 1.34E+08 and 1.66E+08
- dCMP level (metabolomics signal) (replicate samples): 6.47E+03 and 1.42E+04 and 8.65E+03
- dTMP level (metabolomics signal) (replicate samples): 6.95E+05 and 1.44E+06 and 5.66E+05
- glycine level (metabolomics signal) (replicate samples): 2.53E+06 and 2.52E+06 and 2.98E+06
- N-Acyl-D-aspartate (C06380) metabolite signal [1]: 1.39E+05 and 1.05E+05 and 7.72E+04
- Poly-gamma-D-glutamate (C05723) metabolite signal [1]: 4.55E+07 and 6.01E+07 and 4.31E+07
- D-Ribitol 5-phosphate (C01068) metabolite signal [2]: 1.36E+04 and 3.79E+04 and 1.11E+04
- D-glucono-1,5-lactone (C00198) metabolite signal [2]: 3.37E+05 and 3.01E+05 and 3.48E+05
- L-Noradrenaline (C00547) metabolite signal [2]: 3.29E+04 and 4.04E+04 and 2.83E+04
- Oxalosuccinate (C05379) metabolite signal [2]: 9.85E+04 and 9.72E+04 and 1.00E+05
- Pyridoxamine (C00534) metabolite signal [2]: 1.26E+04 and 1.81E+04 and 8.56E+03
- Thioredoxin disulfide (C00343) metabolite signal [2]: 3.49E+04 and 1.17E+05 and 2.13E+04
- 1-4-beta-D-Xylan (metabolite signal) [3]: 1.76E+05 and 2.60E+05 and 1.54E+05
- 2-Hydroxyglutarate/Citramalate (C02630) metabolite signal [3]: 4.45E+04 and 4.76E+04 and 4.24E+04
- 5-6-Dihydrothymine (C00906) metabolite signal [3]: 2.57E+05 and 3.03E+05 and 1.85E+05
- 5-10-Methenyltetrahydrofolate (metabolite signal) [3]: 1.81E+05 and 1.74E+05 and 1.10E+05
- 5-Hydroxyisourate (C11821) metabolite signal [3]: 4.87E+06 and 2.62E+06 and 4.93E+06
- 5-L-Glutamyl-taurine (metabolite signal) [3]: 1.73E+05 and 9.38E+04 and 2.11E+05
- 5-Oxoproline (metabolite signal) [3]: 5.99E+05 and 6.10E+05 and 6.21E+05
- (S)(+)-Allantoin (C02350) metabolite signal [3]: 1.83E+04 and 1.70E+04 and 1.48E+04
- Allantoate (C00499) metabolite signal [3]: 1.28E+05 and 4.06E+05 and 1.02E+05
- Ascorbate (metabolite signal) [3]: 6.30E+04 and 1.08E+05 and 4.97E+04
- CMP-N-acetylneuraminate (metabolite signal) [3]: 6.05E+03 and 4.63E+03 and 2.62E+03
- Carnosine (metabolite signal) [3]: 2.09E+05 and 1.71E+05 and 1.90E+05
- Citrate (C00158) metabolite signal [3]: 1.89E+04 and 2.10E+04 and 1.46E+04
- Creatine (metabolite signal) [3]: 2.57E+08 and 2.12E+08 and 2.30E+08
- Creatinine (metabolite signal) [3]: 2.38E+06 and 2.51E+06 and 2.49E+06
- Cys-Gly (metabolite signal) [3]: 7.57E+05 and 1.20E+06 and 8.09E+05
- D-Glucosamine (metabolite signal) [3]: 6.03E+05 and 3.34E+05 and 1.05E+06
- D-Glucose (C00031) metabolite signal [3]: 4.53E+06 and 6.78E+06 and 3.73E+06
- D-Ribose (C00121) metabolite signal [3]: 1.22E+05 and 1.96E+05 and 1.18E+05
- Dehydroascorbate (metabolite signal) [3]: 4.03E+04 and 3.78E+04 and 2.56E+04
- Dihydrofolate (metabolite signal) [3]: 6.94E+05 and 1.83E+06 and 6.55E+05
- Dimethylglycine (metabolite signal) [3]: 1.12E+06 and 8.60E+05 and 1.04E+06
- Diphosphate (C00013) metabolite signal [3]: 1.40E+04 and 3.85E+04 and 1.73E+04
- Fumarate (C00122) metabolite signal [3]: 8.16E+04 and 8.08E+04 and 7.78E+04
- Glutathione (C00051) metabolite signal [3]: 5.06E+07 and 7.77E+07 and 5.74E+07
- Glutathione disulfide (metabolite signal) [3]: 7.45E+04 and 7.57E+04 and 5.41E+04
- Hypoxanthine (C00262) metabolite signal [3]: 6.66E+03 and 1.71E+04 and 1.69E+04
- IMP (C00130) metabolite signal [3]: 7.81E+04 and 9.15E+04 and 6.22E+04
- Inosine (C00294) metabolite signal [3]: 6.22E+04 and 5.44E+04 and 6.05E+04
- L-Citrulline (metabolite signal) [3]: 5.24E+06 and 4.00E+06 and 4.92E+06
- L-Homoserine (metabolite signal) [3]: 1.76E+05 and 2.52E+05 and 1.58E+05
- Lactate (C01432) metabolite signal [3]: 7.95E+06 and 9.12E+06 and 7.54E+06
- Malate (C00149) metabolite signal [3]: 6.76E+04 and 6.17E+04 and 6.25E+04
- Mannitol (C00392) metabolite signal [3]: 1.25E+05 and 1.54E+05 and 1.02E+05
- N-Acetylneuraminate (metabolite signal) [3]: 1.98E+04 and 1.32E+04 and 1.62E+04
- N-Glycoloyl-neuraminate (metabolite signal) [3]: 7.97E+04 and 1.42E+05 and 5.68E+04
- NAD+ (C00003) metabolite signal [3]: 1.57E+04 and 4.46E+04 and 2.15E+04
- Nicotinamide (C00153) metabolite signal [3]: 4.80E+07 and 5.08E+07 and 4.18E+07
- Ornithine (metabolite signal) [3]: 1.57E+06 and 1.30E+06 and 1.16E+06
- Oxaloacetate (C00036) metabolite signal [3]: 3.29E+04 and 5.49E+04 and 3.03E+04
- Phosphoserine (metabolite signal) [3]: 0.00E+00 (2×) and 1.77E+04
- Putrescine (metabolite signal) [3]: 4.04E+04 and 3.04E+04 and 2.63E+04
- Pyridoxal (C00250) metabolite signal [3]: 5.25E+04 and 8.23E+04 and 7.59E+04
- Pyruvate (C00022) metabolite signal [3]: 5.39E+05 and 7.10E+05 and 4.33E+05
- S-Glutathionyl-L-cysteine (metabolite signal) [3]: 5.57E+04 and 6.02E+04 and 1.82E+04
- Sedoheptulose 1-phosphate (C06222) metabolite signal [3]: 2.81E+03 and 3.84E+03 and 2.38E+03
- Spermidine (metabolite signal) [3]: 7.32E+06 and 6.78E+06 and 6.25E+06
- Spermine (metabolite signal) [3]: 7.58E+06 and 7.10E+06 and 6.92E+06
- Succinate (C00042) metabolite signal [3]: 6.13E+04 and 9.94E+04 and 5.79E+04
- Thymidine (C00214) metabolite signal [3]: 1.12E+04 and 1.26E+04 and 8.73E+03
- UDP (C00015) metabolite signal [3]: 5.07E+04 and 1.42E+05 and 2.88E+04
- UDP-N-acetyl-D-glucosamine (metabolite signal) [3]: 2.55E+03 and 3.51E+03 and 2.64E+03
- UDP-glucose (C00029) metabolite signal [3]: 5.62E+03 and 1.08E+04 and 6.04E+03
- Urate (C00366) metabolite signal [3]: 2.31E+04 and 2.80E+04 and 2.12E+04
- Xanthine (C00385) metabolite signal [3]: 1.88E+05 and 1.43E+05 and 1.48E+05
- alpha-D-Glucosamine 1-phosphate (metabolite signal) [3]: 8.86E+05 and 4.48E+05 and 1.21E+06
- alpha-D-Ribose 1-phosphate (C00620) metabolite signal [3]: 2.29E+04 and 4.78E+04 and 2.91E+04
- gamma-Glutamyl-gamma-aminobutyrate (metabolite signal) [3]: 9.00E+04 and 5.89E+04 and 7.26E+04
- gamma-L-Glutamyl-D-alanine (metabolite signal) [3]: 1.81E+04 and 1.74E+04 and 1.70E+04
- gamma-L-Glutamyl-L-cysteine (metabolite signal) [3]: 1.43E+04 and 3.68E+04 and 6.67E+03
